Values after ≈ are worked out from the molar mass of the structure shown. Where two headings read alike, the source gives them in different places.
Assays:
[1] = system: BALB/c-3T3 mouse fibroblasts; assay: 3T3 neutral red uptake phototoxicity assay; type: cell-based; conditions: for IC50: Mus musculus, BALB/c3T3, light or radiation study
Description: Therefore, the compounds of the present disclosure were screened for phototoxicity using the 3T3 natural red uptake assay.
In brief, BALB/c-3T3 mouse fibroblasts (originally obtained from ATCC) were seeded in 96-well plates at 12,000 cells per well, and grown for 24 hr. Test compounds and the positive control (chlorpromazine) were solubilized and serially diluted in DMSO. The negative control (histidine) was solubilized and diluted in HBSS. A dilution for all test articles was then made into HBSS at the final testing concentrations. At the start of the assay, the growth medium was removed from the plates and replaced with test agent dilution. Six replicates were used for each concentration. Cells were incubated in the dark with test article for 1 h, exposed to UVA light (2.5 J/cm2 over 18 min) and incubated 24 hrs. in the dark. A parallel non-irradiated plate was treated similarly, except it was stored in the dark, rather than illuminated.
For Neutral Red staining, medium was removed and fresh medium containing 25 μg/mL of Neutral Red (Sigma) was added. After three hours incubation, the cells were washed with PBS, and the cellular dye was solubilized with 1% acetic acid in 50% ethanol. Cellular Neutral Red was measured by its absorbance at 540 nm.
Data analysis: An IC50 (concentration that causes 50% reduction in viability) was calculated for each condition by linear interpolation.
A Photo-Irritation Factor (PIF) was calculated: PIF=IC50(−Irr)/IC50(+Irr)
PIF>5 indicates phototoxicity; 2<PIF<5 indicates probable phototoxicity; PIF<2 indicates no phototoxicity
In addition, the Mean Photo Effect (MPE) was calculated by comparison of the complete concentration-response curves. MPE is a weighted average of the difference in response of equivalent doses normalized by the shift in IC50.
MPE>0.15 indicates phototoxicity; 0.1<MPE<0.15 indicates probable phototoxicity; MPE<0.1 indicates no phototoxicity.

[2] = system: ERK phosphorylation in HEKa cells; assay: phospho-ERK in HEKa cells following EGFR inhibitors (Western blot); type: cell-based, human
Description: Human normal keratinocyte cells HEKa were purchased from Gibco Rhenium and seeded in 10 cm dishes (300,000 cells/dish) and incubated overnight at 37° C., 5% CO2. Next morning, the medium was replaced to a starvation medium for 2 hours and then the cells were treated for 2 additional hours with the test compounds. Post incubation, the cells were lyzed with RIPA and the protein extracts were analyzed by western blot for Phospho-ERK and total ERK. Untreated cells and 0.1% DMSO treated cells were used as negative control. HKGS growth factors was used as a positive control.
Western blot: 7.5 μg of total extract was loaded on 10% acrylamide gel. Following transfer, the membranes were blocked with TBST/5% skimmed milk and then incubated with Mouse anti Phospho-ERK (1:1000 in TBST 5% BSA, ON at 4° C.) and goat anti Mouse HRP (1:10,000 in TBST 5% BSA, 1-hour RT). The membranes were exposed using SuperSignal West Pico Chemiluminescent Substrate.
The HRP was then inactivated by incubating the membranes for 1 hour with 0.5% sodium azide Following washes and ECL exposure in order to ensure absence of signal, the membranes were re-blocked for 15 min with TBST/5% skimmed milk and then incubated with Rabbit anti total ERK2 (1:500 in TBST 5% BSA, ON at 4° C.), goat anti Rabbit HRP (1:5,000 in TBST 5% BSA, 1-hour RT) and finally exposed using the SuperSignal West Pico Chemiluminescent Substrate. The films were scanned and the signal were quantified using ImageJ software. The results were calculated as Phospho-ERK/total ERK.
HKGS was used as a positive control.

[3] = MPE>0.15 phototoxicity, 0.1-0.15 probable, <0.1 none
[4] = non-irradiated, Neutral Red, read-out: Cell Viability IC50 Minus UVA
[5] = PIF=IC50(−Irr)/IC50(+Irr), >5 phototoxicity, 2-5 probable, <2 none

| SMILES | Comment (photo-toxicity assessment) [1] | Mean MPE [1, 3] | IC50 [1, 4] [µg/mL] | Mean PIF [1, 5] | other results |
| --- | --- | --- | --- | --- | --- |
| CN(C)CCCN1c2ccccc2Sc2ccc(Cl)cc21 [Chloropromazine, chlorpromazine] | Phototoxic | 0.477 | 31 (≈ 97.2 µM) | 31.6 |  |
| Cc1ccc2c(Nc3ccc(Cl)cc3)nccc2c1Nc1ncccc1-c1ncnc2[nH]cnc12 [Compound C-1] | Non |  |  |  | phototoxicity (3T3 NRU), stated in words [1]: did not show phototoxicity; IC50 ([1]; 0.3 h, read-out: Cell Viability IC50 Plus UVA): 18.1 µg/mL; IC50 ([1]; read-out: Cell Viability IC50 Minus UVA): 14 µg/mL (≈ 29.2 µM); Mean MPE ([1]; mouse, 24 h): −0.011; Mean PIF ([1]; mouse, 24 h): 0.8 |
| C#Cc1cccc(Nc2ncnc3cc(OCCOC)c(OCCOC)cc23)c1 [Erlotinib, erlotinib, reference compound] |  |  |  |  | phospho ERK compared to HKGS treated cells [2]: decreased |
| N[C@@H](Cc1c[nH]cn1)C(=O)O [Histidine, histidine] |  | 0.036 | > 1000 | 1 | IC50 ([1]; 0.3 h, UVA 2.5 J/cm2 over 18 min, Neutral Red, read-out: Cell Viability IC50 Plus UVA): > 1000 µg/mL |

From patent US11339163B2, “BRaf inhibitors and use thereof for treatment of cutaneous reactions” (Lutris Pharma Ltd., priority 2017, dated 2022)
